Drawing on patent US8067582B2 (Bristol-Myers Squibb Company, priority 2007, dated 2011), this text covers IC50 for 19 compounds.

The structures appear in SMILES notation.

The first assay deals with T1, androgen receptor (AR) (Homo sapiens, UniProt P10275).
T1 sequence (P10275 1-920): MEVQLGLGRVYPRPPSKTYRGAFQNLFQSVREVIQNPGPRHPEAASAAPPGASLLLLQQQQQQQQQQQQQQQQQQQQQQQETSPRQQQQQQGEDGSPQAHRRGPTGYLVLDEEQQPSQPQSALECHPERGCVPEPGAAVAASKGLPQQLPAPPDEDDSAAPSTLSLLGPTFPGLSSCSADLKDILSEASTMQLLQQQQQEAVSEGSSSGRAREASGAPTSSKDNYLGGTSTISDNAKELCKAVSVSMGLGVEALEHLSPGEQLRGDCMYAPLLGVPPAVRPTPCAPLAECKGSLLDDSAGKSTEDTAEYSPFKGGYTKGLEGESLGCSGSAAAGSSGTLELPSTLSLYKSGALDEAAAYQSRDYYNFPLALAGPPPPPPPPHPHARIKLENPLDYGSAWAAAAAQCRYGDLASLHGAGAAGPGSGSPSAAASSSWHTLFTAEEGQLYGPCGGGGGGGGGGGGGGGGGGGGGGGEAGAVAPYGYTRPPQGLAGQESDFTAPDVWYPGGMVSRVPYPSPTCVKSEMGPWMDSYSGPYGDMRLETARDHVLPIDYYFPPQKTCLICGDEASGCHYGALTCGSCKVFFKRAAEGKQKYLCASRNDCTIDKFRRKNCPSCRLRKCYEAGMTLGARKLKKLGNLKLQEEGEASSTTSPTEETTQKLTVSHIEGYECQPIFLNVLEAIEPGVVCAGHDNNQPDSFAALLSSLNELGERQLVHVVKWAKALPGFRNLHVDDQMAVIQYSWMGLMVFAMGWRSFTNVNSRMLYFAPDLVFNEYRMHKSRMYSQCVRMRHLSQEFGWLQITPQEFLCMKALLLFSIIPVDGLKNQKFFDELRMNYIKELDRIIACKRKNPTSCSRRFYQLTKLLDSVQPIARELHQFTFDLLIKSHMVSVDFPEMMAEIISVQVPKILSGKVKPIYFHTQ
In words: MDA-MB-453 Androgen Receptor Transactivation Assay (PSA-Luc reporter, 3 nM DHT). The class given is cell-based. The conditions noted are these: MDA-MB-453 cells, antagonism in presence of 3 nM DHT, 48 hour incubation. An excerpt: Compounds can be tested in a cell based transactivation assay used to measure the antagonism of androgen receptor (AR) transcriptional activity. The transactivation assay provides a means of identifying antagonists that inhibit the effects of the native hormone dihydrotestosterone (DHT). […] The pGL3 PSA-Luc reporter plasmid is comprised of the cDNA for the firefly luciferase gene and the upstream promoter sequences containing the androgen response elements (AREs) of the prostate specific antigen (PSA). This plasmid functions as a reporter for the transcription-modulating activity of the AR. In order to detect antagonists, the transactivation assay is conducted in the presence of constant concentration of the natural AR hormone (DHT) to induce a defined reporter signal. Addition of increasing concentrations of the suspected antagonist will decrease the reporter signal (luciferase activity).
MDA-MB-453 and 22 RV1 cells were maintained in DMEM (Cellgro, Cat. #10-014-CM) or RPMI 1640 (Gibco Cat. #11875-085) respectively and supplemented with 10% FBS (Invitrogen/GIBCO Life Science). Cells were bulk transfected in flasks with 1.3 ug/ml pGL3 PSA-Luc plasmid by using the Lipofectamine 2000 Reagent (Invitrogen, Cat. #11668-019) and serum-free Opti-MEM I media (Invitrogen, Cat #31985-070) according to the manufacturer's optimized conditions. Transfection was conducted at 37° C. with 5% CO2 for 16-18 hours. Following transfection, cells are washed, treated with trypsin, counted, and seeded in a 96-well plate at 30,000 cells per well in DMEM containing 10% Charcoal/Dextran Treated Fetal Bovine Serum (Gibco Cat. #11054-020) for MDA-MB-453 cells or RPMI 1640 (Gibco Cat. #110835) containing 10% FBS (Invitrogen/GIBCO Life Science) for 22 RV1 cells.
Following transfection, cells were incubated in the absence (blank) or presence (control) of 3 nM DHT (Sigma, Cat. #A-8380) and in the presence or absence of the standard antiandrogen bicalutamide or test compounds ranging in concentrations from 10^−10 to 10^−5M. Duplicates were used for each sample. The compound dilutions were performed by the Tecan Genesis (Tecan, Triangle Park, N.C.). After a 48 hour incubation, luciferase activity was measured using the Steady-Glo Luciferase Assay System (Promega, Cat. #E2550) according to manufacturer's specifications and luminescence was measured on a Packard TopCount (PerkinElmer). For each luciferase sample reading, the percent control (in absence of compounds) was calculated as: % Control=100×[averagesample−averageblank]/[averagecontrol−averageblank] Data was plotted and the IC50 value was defined as the concentration of compound that inhibited 50% of the luciferase activity for the controls.
Compounds described herein were tested in the AR transactivation assay described immediately above, using MDA-MB-453 cells.
For `C[C@@]12C[C@H](O)[C@]3(CO[C@H]4[C@@H]3[C@@H]1C(=O)N4c1ccc(C#N)c(C(F)(F)F)c1)O2` [Example 38, 4-((1S,4S,7S,8R,10S,11R)-10-Hydroxy-8-methyl-6-oxo-3,12-dioxa-5-azatetracyclo[5.3.1.1^1,8.0^4,11]dodec-5-yl)-2-(trifluoromethyl)benzonitrile], the IC50 stood at 1090 nM. The same measure, in the same setting: as for `CCS(=O)(=O)N[C@H]1C[C@@]23CCO[C@H]4[C@@H]2[C@H](C(=O)N4c2ccc(C#N)c(C(F)(F)F)c2)[C@]1(C)O3` [Example 222, N-((1R,3S,4S,5S,8S,12R)-7-(4-cyano-3-(trifluoromethyl)phenyl)-4-methyl-6-oxo-9,13-dioxa-7-azatetracyclo[6.3.1.1^1,4.0^5,12]tridec-3-yl)ethanesulfonamide], the figure is 58 nM. Same read-out and setting: the figure for `CNS(=O)(=O)N[C@H]1C[C@@]2(C)O[C@@]13CCO[C@H]1[C@@H]3[C@@H]2C(=O)N1c1ccc(C#N)c(Cl)c1` [Example 47, N-((1R,2S,4R,5S,8S,12R)-7-(3-Chloro-4-cyanophenyl)-4-methyl-6-oxo-9,13-dioxa-7-azatetracyclo[6.3.1.1^1,4.0^5,12]tridec-2-yl)-N′-methylsulfamide] is 1610 nM; for `CCS(=O)(=O)N[C@H]1C[C@@]2(C)O[C@@]13CCO[C@H]1[C@@H]3[C@@H]2C(=O)N1c1ccc(C#N)c(C(F)(F)F)c1F` [Example 190, N-((1R,2S,4R,5S,8S,12R)-7-(4-Cyano-2-fluoro-3-(trifluoromethyl)phenyl)-4-methyl-6-oxo-9,13-dioxa-7-azatetracyclo[6.3.1.1^1,4.0^5,12]tridec-2-yl)ethanesulfonamide] it is 2270 nM; for `C[C@]12O[C@@]3(CCO[C@@]4(C)[C@@H]3[C@@H]1C(=O)N4c1ccc(C#N)c(C(F)(F)F)c1)C[C@H]2O` (single isomer, unassigned) [Example 25] it is more than 7500 nM. On the same count and under the same terms, the figure for `C[C@@]12O[C@]3(CCO[C@]4(C)[C@H]3[C@H]1C(=O)N4c1ccc(C#N)c(C(F)(F)F)c1)C[C@@H]2O` (single isomer, unassigned) [Example 26] is more than 7500 nM; for `N#Cc1ccc(N2C(=O)[C@@H]3[C@@H]4[C@H]2OCC[C@]42O[C@H]3C[C@H]2O)cc1C(F)(F)F` (single isomer, unassigned) [Example 55] it is 10800 nM; for `C[C@@]12O[C@]3(CCO[C@@H]4[C@H]3[C@H]1C(=O)N4c1ccc(C#N)c(C(F)(F)F)c1)C[C@@H]2O` (single isomer, unassigned) [Example 2] it is 11000 nM.

Regarding `C[C@@]12C[C@H](O)[C@]3(CCO[C@H]4[C@@H]3[C@]1(CO)C(=O)N4c1ccc(C#N)c(C(F)(F)F)c1)O2` [Example 24, 4-((1R,2S,4R,5R,8S,12R)-2-hydroxy-5-(hydroxymethyl)-4-methyl-6-oxo-9,13-dioxa-7-azatetracyclo[6.3.1.1^1,4.0^5,12]tridec-7-yl)-2-(trifluoromethyl)benzonitrile], the IC50 worked out at 5450 nM. For `C[C@@]12C[C@H](O)[C@]3(CCO[C@H]4[C@@H]3[C@]1(C(=O)OCc1ccccc1)C(=O)N4c1ccc(C#N)c(C(F)(F)F)c1)O2` [Example 23, Benzyl (1R,2S,4R,5R,8S,12R)-7-(4-cyano-3-(trifluoromethyl)phenyl)-2-hydroxy-4-methyl-6-oxo-9,13-dioxa-7-azatetracyclo[6.3.1.1^1,4.0^5,12]tridecane-5-carboxylate], the IC50 was determined as 1200 nM. Consider `C[C@@]12C[C@@](C)(O)[C@]3(CCO[C@H]4[C@@H]3[C@@H]1C(=O)N4c1ccc(C#N)c(C(F)(F)F)c1)O2` [Example 37, 4-((1R,2R,4R,5S,8S,12R)-2-hydroxy-2,4-dimethyl-6-oxo-9,13-dioxa-7-azatetracyclo[6.3.1.1^1,4.0^5,12]tridec-7-yl)-2-(trifluoromethyl)benzonitrile], for which the IC50 was found to be 1160 nM.

Regarding `C[C@@]12C[C@H](NC(=O)OCCO)[C@]3(CCO[C@H]4[C@@H]3[C@@H]1C(=O)N4c1ccc(C#N)c(C(F)(F)F)c1)O2` [Example 162, 2-Hydroxyethyl ((1R,2S,4R,5S,8S,12R)-7-(4-cyano-3-(trifluoromethyl)phenyl)-4-methyl-6-oxo-9,13-dioxa-7-azatetracyclo[6.3.1.1^1,4.0^5,12]tridec-2-yl)carbamate], the IC50 was determined as 1960 nM.

`CCNC(=O)[C@]12C(=O)N(c3ccc(C#N)c(C(F)(F)F)c3)[C@@H]3OCC[C@@]4(C[C@H](O)[C@]1(C)O4)[C@@H]32` (single isomer, unassigned) [Example 22]: the IC50 is more than 7500 nM. Same read-out and setting: as for `Cc1c(N2C(=O)[C@H]3[C@H]4[C@@H]2OCC[C@]42C[C@@H](O)[C@@]3(C)O2)ccc(C#N)c1C(F)(F)F` [Example 142, 4-((1S,3R,4S,5S,8S,12R)-3-hydroxy-4-methyl-6-oxo-9,13-dioxa-7-azatetracyclo[6.3.1.1^1,4.0^5,12]tridec-7-yl)-3-methyl-2-(trifluoromethyl)benzonitrile], the figure is 950 nM; as for `CC(=O)N[C@@H]1[C@@H](O)[C@]23CCO[C@@H]4[C@H]2[C@@H](C(=O)N4c2ccc(C#N)c(C(F)(F)F)c2)[C@@]1(C)O3` (stereo in doubt) [Example 254, N-((1S,2R,3R,4R,5R,8R,12S)-7-(4-cyano-3-(trifluoromethyl)phenyl)-2-hydroxy-4-methyl-6-oxo-9,13-dioxa-7-azatetracyclo[6.3.1.1^1,4.0^5,12]tridec-3-yl)acetamide], 4950 nM; as for `C[C@@]12C[C@H](N)[C@]3(CCO[C@H]4[C@@H]3[C@@H]1C(=O)N4c1ccc(C#N)c(Cl)c1)O2` [Example 45, 4-((1R,2S,4R,5S,8S,12R)-2-amino-4-methyl-6-oxo-9,13-dioxa-7-azatetracyclo[6.3.1.1^1,4.0^5,12]tridec-7-yl)-2-chlorobenzonitrile], 12800 nM.

Still in this assay, the particulars now being: MDA-MB-453 cells, antagonism in presence of 3 nM DHT, 48 hour incubation, read-out: IC50.
Take `C[C@]12O[C@@]3(CCO[C@H]4[C@@H]3[C@@H]1C(=O)N4c1ccc(Cl)c(F)c1)C[C@H]2O` [Example 138, (1S,3R,4S,5S,8S,12R)-7-(4-chloro-3-fluorophenyl)-3-hydroxy-4-methyl-9,13-dioxa-7-azatetracyclo[6.3.1.1^1,4.0^5,12]tridecan-6-one]: the IC50 is 6050 nM.

As for `C[C@@]12C[C@H](O)[C@]3(CCO[C@H]4[C@@H]3[C@@H]1C(=O)N4c1cc(Cl)cc(Cl)c1)O2` [Example 117, (1R,2S,4R,5S,8S,12R)-7-(3,5-dichlorophenyl)-2-hydroxy-4-methyl-9,13-dioxa-7-azatetracyclo[6.3.1.1^1,4.0^5,12]tridecan-6-one], the IC50 came to 2480 nM. On the same count and under the same terms, as for `C[C@@]12C[C@H](O)[C@]3(CCO[C@H]4[C@@H]3[C@@H]1C(=O)N4c1ccc(F)c(Cl)c1)O2` [Example 15, (1R,2S,4R,5S,8S,12R)-7-(3-chloro-4-fluorophenyl)-2-hydroxy-4-methyl-9,13-dioxa-7-azatetracyclo[6.3.1.1^1,4.0^5,12]tridecan-6-one], the figure is 10500 nM.
